Data published in ChEMBL document CHEMBL1201862, “PubChem BioAssay data set” (2004).
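Following 48 hours of exposure in 96-well plates, responses at five concentrations were used to interpolate endpoints linearly. At the GI50, growth is halved.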 Calls of active or inactive are those of the source. Rule as the data show it: active = GI50 up to about 1.1 µM and inactive = higher.

How the values were obtained:
Assay in all cases: NCI tumour cell line growth inhibition, 48 h
A498 = tested on: A498
SF-295 = tested on: SF-295
ACHN = tested on: ACHN
M14 = tested on: M14
EKVX = tested on: EKVX
UO-31 = tested on: UO-31
SF-268 = tested on: SF-268
SK-OV-3 = tested on: SK-OV-3
COLO 205 = tested on: COLO 205
SN12C = tested on: SN12C
K562 = tested on: K562
HCC 2998 = tested on: HCC 2998
SNB-19 = tested on: SNB-19
NCI-H460 = tested on: NCI-H460
NCI-H522 = tested on: NCI-H522
SK-MEL-2 = tested on: SK-MEL-2
HCT-15 = tested on: HCT-15
A549 = tested on: A549
CAKI-1 = tested on: CAKI-1
BT-549 = tested on: BT-549

SMILES	GI50 (A498)	GI50 (SF-295)	GI50 (ACHN)	GI50 (M14)	GI50 (EKVX)	GI50 (UO-31)	GI50 (SF-268)	GI50 (SK-OV-3)	GI50 (COLO 205)	GI50 (SN12C)	GI50 (K562)	GI50 (HCC 2998)	GI50 (SNB-19)	GI50 (NCI-H460)	GI50 (NCI-H522)	GI50 (SK-MEL-2)	GI50 (HCT-15) [µM]	GI50 (A549)	GI50 (CAKI-1)	GI50 (BT-549)
COC(=O)C1=C(C(=O)OC)C2OC1C1C2C2(C)C(C)=C(C)C1(C)[S+]2[O-] (stereo not given)	27.5 µM (inactive)	28.4 µM (inactive)	2.83 µM (inactive)	8.59 µM (inactive)	11.5 µM (inactive)	4.21 µM (inactive)	9.55 µM (inactive)	37.9 µM (inactive)	6.43 µM (inactive)	16.6 µM (inactive)	4.9 µM (inactive)	20.1 µM (inactive)	30.3 µM (inactive)	15.9 µM (inactive)	2.14 µM (inactive)	10.8 µM (inactive)	4.18	22.3 µM (inactive)	4.93 µM (inactive)	10.4 µM (inactive)
COc1cc(C2c3cc4c(cc3OC(N3CCCCC3)C2C)OCO4)cc(OC)c1OC (stereo not given)	3.38 µM (inactive)	1.75 µM (inactive)	6.79 µM (inactive)	2.83 µM (inactive)	10.3 µM (inactive)	5.02 µM (inactive)	9.02 µM (inactive)	2.77 µM (inactive)	3.02 µM (inactive)	6.07 µM (inactive)	2.44 µM (inactive)	2.9 µM (inactive)	3.24 µM (inactive)	3.52 µM (inactive)	2.49 µM (inactive)	3.45 µM (inactive)	3.65	4.04 µM (inactive)	2.46 µM (inactive)	18.9 µM (inactive)
CCC1C(c2ccccc2O)c2cc3c(cc2OC1N1CCOCC1)OCO3 (stereo not given)	14.3 µM (inactive)	14.9 µM (inactive)	13.3 µM (inactive)	15.1 µM (inactive)	12.8 µM (inactive)	13.9 µM (inactive)	14.7 µM (inactive)	22.2 µM (inactive)	15.4 µM (inactive)	15.7 µM (inactive)	11.5 µM (inactive)	17.3 µM (inactive)	15.3 µM (inactive)	14.3 µM (inactive)	12.9 µM (inactive)	15.5 µM (inactive)	9.4	14.4 µM (inactive)	16.6 µM (inactive)	15.6 µM (inactive)
CC(C)=CCc1c(OC(=O)c2c(C)cc(O)cc2O)cc(CO)c(CO)c1O	17.3 µM (inactive)	17.2 µM (inactive)	14.4 µM (inactive)	20.8 µM (inactive)	32.4 µM (inactive)	12.2 µM (inactive)	26.7 µM (inactive)	16.2 µM (inactive)	17.9 µM (inactive)	18.5 µM (inactive)	7.62 µM (inactive)	16.4 µM (inactive)	8.07 µM (inactive)	17.6 µM (inactive)	18 µM (inactive)	21.3 µM (inactive)	17.7	6.43 µM (inactive)	5.48 µM (inactive)	18.7 µM (inactive)
CC(C)(C)[Si](C)(C)OC1CCOC1(O)c1ccccn1 (stereo not given)	> 100 µM (inactive)	> 100 µM (inactive)	> 100 µM (inactive)	> 100 µM (inactive)	> 100 µM (inactive)	> 100 µM (inactive)	> 100 µM (inactive)	> 100 µM (inactive)	> 100 µM (inactive)	> 100 µM (inactive)	57.9 µM (inactive)	> 100 µM (inactive)	> 100 µM (inactive)	> 100 µM (inactive)	> 100 µM (inactive)	> 100 µM (inactive)	> 100	> 100 µM (inactive)	> 100 µM (inactive)	> 100 µM (inactive)
O=C(O)C(C(=O)O)P(=S)(S)c1ccccc1 (stereo not given)	> 100 µM (inactive)	> 100 µM (inactive)	> 100 µM (inactive)	> 100 µM (inactive)	> 100 µM (inactive)	> 100 µM (inactive)	> 100 µM (inactive)	> 100 µM (inactive)	> 100 µM (inactive)	> 100 µM (inactive)	> 100 µM (inactive)	> 100 µM (inactive)	> 100 µM (inactive)	> 100 µM (inactive)	> 100 µM (inactive)	> 100 µM (inactive)	> 100	> 100 µM (inactive)	> 100 µM (inactive)	> 100 µM (inactive)
